Experimental data from US20040072258A1, “Isoprenoid-dependent ras anchorage (idra) proteins” (priority 2003, published 2004).
“Also recorded” adds a separate entry of the source. One block for each molecule: values may come before it.

Columns and labels:
Ras-transformed cells = settings: Aharonson et al., 1998; cited from earlier work
H-Ras [1] = biological target: H-Ras (Homo sapiens, UniProt P01112, G12V); settings: intact cells in vitro; dislodging H-Ras from its anchorage domains; cited from earlier work
membrane Ras = biological target: T1, membrane Ras (Homo sapiens, UniProt P01112, G12V); assay: Membrane Ras in intact EJ cells treated with FTS or GTS; type: cell-based, rat; settings: without cross-linking, data not shown
T1 construct: expressed in transfected cells; host or cells: Rat-1 fibroblasts stably transformed with H-Ras (12V) (EJ cells)
Source text: (§1) In agreement with previous results [Kloog et al., 1999] FTS, but not GTS, reduced the amount of membrane Ras in the cells by 50-60% (data not shown). Similarly, FTS (but not GTS) induced a 90% reduction in the amount of membrane galectin-1 (FIG. 3). Thus, the magnitude of the FTS-induced galectin-1 decrease was much greater than that of Ras.

[2] = test system: cells transformed by v-Raf; settings: v-Raf acts independently of Ras; cited from earlier work
Ras methylation = settings: in vitro; cited from earlier work
[3] = test system: prenylated Rac-1 and Rho A; settings: human melanoma cells; cited from earlier work
membrane galectin-1 = biological target: T2, membrane galectin-1 (Rattus norvegicus, UniProt P11762); assay: Membrane galectin-1 in intact EJ cells treated with FTS or GTS (Western blot); type: cell-based; settings: for reduction in the amount of membrane galectin-1: intact EJ cells, without cross-linking, Western blot (FIG. 3)
T2 construct: endogenous in cells; host or cells: EJ cells (H-Ras (12V)-transformed Rat-1 fibroblasts)
Source text: FIG. 3 is a photograph of a Western blot of galectin-1 isolated from cells in the presence of a control, FTS and GTS.
Yet another aspect of the present invention is directed to a method of determining efficacious dosages of a Ras antagonist that disrupts Ras-anchor protein binding. In general, the method entails contacting cells with the antagonist in vivo or in vitro, collecting the cells following the contacting, isolating cell membranes from the collected cells, measuring decrease in anchor protein concentration per unit of cell membrane protein, and correlating the decrease with dosage of the Ras antagonist. In a preferred embodiment, a method for measuring the biological action of FTS and its analogs in vivo and in vitro is based on the suppression of the immunoassayable galectin-1 in H-Ras-transformed tumors. The basis of this assay depends upon the dose dependent loss of galectin-1 from cell membranes by FTS. Under maximal stimulation of tumor cells with FTS, 90% of galectin-1 is lost from membrane. This allows for an excellent dose response. A variation of this assay uses drug induced suppression of the anchor proteins in normal human lymphocytes isolated from patients being treated with FTS in phase 1 clinical trials. A dose of FTS or any other Ras antagonist that maximally suppresses galectin-1 (or the respective anchor protein of the antagonist) should be a dose that produces effects on other biological endpoints in vivo. When such assay is in mice and humans, therapeutically efficacious doses of Ras antagonists for humans can be determined.
as §1

[4] = biological target: T3, Ras-IDRA complex (34-43 kDa) (Rattus norvegicus, UniProt P11762); assay: Chemical cross-linking (DSS/DSP) of Ras-IDRA complexes in EJ cells and membranes, SDS-PAGE, Ras Ab immunoblot, purification; type: cell-based
T3 construct: expressed in transfected cells; host or cells: EJ cells (Rat-1 transformed with H-Ras (12V)) and their membranes; galectin-1 is endogenous
Description: FIG. 1 is a photograph of an electrophoretic gel illustrating use of Ras antibodies and chemical cross-linkers for identification of Ras IDRA complexes that are sensitive to the Ras inhibitor, FTS. Ras antibodies (Ab) identify Ras and Ras-IDRA complex in EJ cell membranes. Membranes corresponding to 10^6 control or FTS (50 μM)-treated EJ cells were incubated in 50 mM sodium bicarbonate buffer, pH 8.5, containing protease inhibitors and 2% DMSO (no cross-linker controls) or the indicated concentrations of the cross-linkers DSS or DSP. Samples of Triton X-100 extracts of the membranes were subjected to SDS-PAGE under non-reducing conditions followed by Western immunoblotting with Ras Ab. Open arrow corresponds to Ras (21 kDa) and closed arrow corresponds to the major Ras-putative IDRA band (34-43 kDa) detected in the blot under these conditions. This band is not detected in the blots of the non cross-linked samples or in the blots of the cross-linked samples of FTS-treated cells.
We used chemical cross-linkers in an attempt to identify the rapidly dissociating complexes of Ras and Ras-interacting proteins. […] When membranes of control and FTS-treated cells were exposed to these cross-linkers solubilized and fractionated on SDS-containing gels, Ras-immunoreactive bands were clearly detected at 34-43 kDa, 50 kDa, and 70 kDa (FIG. 1). […]

[5] = test system: K-Ras 4B (12V), N-Ras (13V) and N-Ras (61L); settings: membranes of rodent fibroblasts and of human tumor cell lines; cited from earlier work
myr-Ras = settings: myr-Ras-transformed cells; cited from earlier work
[6] = test system: H-Ras-transformed Rat-I (EJ) fibroblasts; settings: cited from earlier work
[7] = test system: cells transformed with the farnesylated but unmethylated K-Ras 4B (12V) CVYL isoform; settings: cited from earlier work
[8] = test system: fibroblasts transformed by ErbB2; settings: ErbB2 acting upstream of Ras; cited from earlier work
H-Ras [9] = settings: cited from earlier work
[10] = test system: prenylated Gβγ-subunits of heterotriimeric G-proteins; settings: Rat-1 cell membranes; cited from earlier work

T2 sequence (P11762 whole entry): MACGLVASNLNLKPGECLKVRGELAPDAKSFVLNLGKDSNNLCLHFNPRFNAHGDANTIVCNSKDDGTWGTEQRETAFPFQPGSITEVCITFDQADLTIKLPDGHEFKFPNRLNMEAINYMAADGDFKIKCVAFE
T3 sequence (P11762 2-135 limits assumed, one chain of several): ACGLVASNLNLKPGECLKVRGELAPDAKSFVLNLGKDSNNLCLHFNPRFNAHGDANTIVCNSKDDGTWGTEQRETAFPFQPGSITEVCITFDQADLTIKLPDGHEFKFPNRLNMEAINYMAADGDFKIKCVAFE

Compound: COC(=O)c1ccccc1SCC=C(C)CCC=C(C)CCC=C(C)C [carboxy methylester analogue]
inhibition of growth of Ras-transformed cells (Ras-transformed cells): not

reduction of the amount of membrane Ras in the cells (membrane Ras): 50-60% | levels of endogenous galectin-1 in EJ cells (membrane galectin-1; EJ cells, in parallel with the decrease in Ras): decreased the levels | reduction in the amount of membrane galectin-1 (membrane galectin-1): 90% | 34-43 kDa Ras-putative IDRA cross-linked band ([4]; FTS (50 μM)-treated EJ cells or membranes, DSS or DSP, Ras Ab blot (FIG. 1)): not detected; also recorded: not present
Compound: CC(C)=CCC/C(C)=C/CC/C(C)=C/CSc1ccccc1C(=O)O [FTS, S-trans, trans-farnesylthiosalicylic acid]
total amount of cellular Ras (H-Ras [1]): reduced the total amount of cellular Ras | inhibition of growth of Ras-transformed cells (Ras-transformed cells): inhibited growth | inhibition of growth of v-Raf-transformed cells [2]: not the growth | inhibition of Ras methylation (Ras methylation): inhibit | reduction of the amounts of prenylated Rac-1 and Rho A [3]: did not reduce | amount of galectin-1 purified from cross-linked complexes of treated EJ cells ([4]; FTS-treated EJ cells, Western blot (FIG. 2)): reduces the amounts of anchor; also recorded: very low | dislodging of K-Ras 4B (12V), N-Ras (13V) and N-Ras (61L) from membranes [5]: dislodges | effect on myr-Ras (myr-Ras): no effect | growth inhibition ([6]; H-Ras-transformed Rat-I (EJ) fibroblasts): potent growth inhibitor | effective concentration range ([6]; affected specifically the membrane-bound H-Ras protein in these cells): 5 to 50 µM | inhibition of growth of K-Ras 4B (12V) CVYL-transformed cells [7]: inhibits growth | inhibition of growth of ErbB2-transformed fibroblasts [8]: inhibits the growth | inhibition of farnesylation of H-Ras (H-Ras [9]): did not inhibit | dislodging of prenylated Gβγ-subunits from membranes [10]: did not dislodge

Compound: CC(C)=CCC/C(C)=C/CC/C(C)=C/CC/C(C)=C/CSc1ccccc1C(=O)O [GGTS]
inhibition of growth of Ras-transformed cells (Ras-transformed cells): inhibited growth

reduction of the amount of membrane Ras in the cells (membrane Ras): not | reduction in the amount of membrane galectin-1 (membrane galectin-1): no effect and not
Compound: CC(C)=CCC/C(C)=C/CSc1ccccc1C(=O)O [GTS]
inhibition of growth of Ras-transformed cells (Ras-transformed cells): not
